# Legend:
# Mus musculus [1] = assay: Induction of catalepsy in ip dosed Mus musculus albino (mouse) measured at 30 min interval until 120 min and at the end of 240 min; type: organism-based; settings: in vivo
# Mus musculus [2] = assay: Antipsychotic activity in ip dosed Mus musculus Swiss albino (mouse) assessed as inhibiton of 5-HTP-induced head twitches pretreated 30 min before 50 mg/kg, sc 5-HTP administration measured at 10 min intervals for 30 min, starting 20 min after 5-HTP challenge; type: functional
# Mus musculus [3] = assay: Antipsychotic activity in ip dosed Mus musculus Swiss albino (mouse) assessed as inhibition of […] -induced climbing behavior pretreated 10 min prior to 2.5 mg/kg, ip apomorphine administration measured at 5 min intervals for up to 20 min starting 10 min after apomorphine challenge; type: functional; settings: route intraperitoneal
SMILES,ED50 (Mus musculus [1]),ED50 (Mus musculus [2]),ED50 (Mus musculus [3])
NC(=O)c1ccccc1OCCN1CCN(c2ccccc2)CC1,50 mg/kg,30 mg/kg,35.3 mg/kg
Cc1cccc(N2CCN(CCOc3ccccc3C(N)=O)CC2)c1,70 mg/kg,> 20 mg/kg,40 mg/kg
Cc1ccc(N2CCN(CCOc3ccccc3C(N)=O)CC2)cc1,> 80 mg/kg,27.2 mg/kg,40.5 mg/kg
COc1ccccc1N1CCN(CCOc2ccccc2C(N)=O)CC1,100 mg/kg,10 mg/kg,40 mg/kg
COc1cccc(N2CCN(CCOc3ccccc3C(N)=O)CC2)c1,> 80 mg/kg,25 mg/kg,> 40 mg/kg
NC(=O)c1ccccc1OCCN1CCN(c2ccccc2Cl)CC1,> 80 mg/kg,> 20 mg/kg,> 40 mg/kg
NC(=O)c1ccccc1OCCCN1CCN(c2ccccc2)CC1,> 60 mg/kg,> 20 mg/kg,> 40 mg/kg
COc1ccccc1N1CCN(CCCOc2ccccc2C(N)=O)CC1,> 60 mg/kg,18.2 mg/kg,50 mg/kg
NC(=O)c1ccccc1OCCCCN1CCN(c2ccccc2)CC1,> 60 mg/kg,> 40 mg/kg,> 40 mg/kg
COc1ccccc1N1CCN(CCCCOc2ccccc2C(N)=O)CC1,> 70 mg/kg,> 40 mg/kg,50.8 mg/kg
CN1CCN(C2=Nc3cc(Cl)ccc3Nc3ccccc32)CC1 [CLOZAPINE],–,2.8 mg/kg,8.7 mg/kg
